“Also recorded” adds a separate entry of the source. Peptide text beside a SMILES is read from it. * marks the point of attachment. βNA = c1ccc2cc(N*)ccc2c1
Assays:
[1] = system: [^3 H]Leu-Leu-OMe uptake by PBL (facilitated transport); experiment: Competitive inhibition of [3H]Leu-Leu-OMe uptake; format: cell-based, human; settings: for inhibition at 250 µM: Homo sapiens, unlabeled compound 250 microM
Protocol: Human peripheral blood lymphocytes (PBL) were incubated in the presence of [^3 H]labeled Leu-Leu-OMe at 22° C. for varying lengths of time. The incubation mixture was then centrifuged through silicone oil to separate the cells from any unbound or non-internalized [^3 HLeu-Leu-OMe. […] At 37° C., levels of [^3 H]Leu-Leu-OMe accumulation by PBL were increased above those seen at 22° C. (see Table 4).

[2] = system: natural killer cells (NK); experiment: NK function: lysis of K562 target cells (51Cr release) after preincubation of lymphocytes with compound; settings: for NK toxicity / effect on NK function, in words: lymphocytes exposed 15 minutes at room temperature (FIG. 4, FIG. 5); for NK Toxicity (LD50): concentration which results in 50% loss of human NK function, PBL 15 minutes at 22° C.; for NK Function % Specific Cytotoxicity: Nil 50.8 (Table 2)
Protocol: PBM were separated from heparinized venous blood of healthy donors by centrifugation over sodium diatrizoate-Ficoll gradients (Isolymph, Gallard-Schlesinger Chemical Mfg. Corp., Carle Place, N.Y.).
All cell exposures to the amino acids, dipeptides or their methyl esters were carried out by suspending cells in Dulbecco's phosphate buffered saline (PBS) and incubating them at room temperature with the reagent at the indicated concentration and time interval.
Percent of control cytotoxicity was calculated using the formula: [formula]

[3] = [3H]Leu-Leu-OMe 10 microM (Table 5)
[4] = [3H]Leu-Leu-OMe 10 microM (Table 6)

## CC(C)C[C@H](NC(=O)[C@@H](N)CC(C)C)C(N)=O [Leu-Leu-NH2]
[1]
  competitive inhibition of [3H]Leu-Leu-OMe uptake, in words: do not competitively inhibit PBL uptake of L-Leu-L-Leu-OMe
[1]; [3]
  inhibition at 250 µM: 8%
[2]; 1.00 micro-M, Nil 66 (Table 14)
  NK Function % Specific Lysis K562: 66%
[2]; 250.00 micro-M, Nil 66 (Table 14)
  NK Function % Specific Lysis K562: 71%
[2]
  NK toxicity / effect on NK function, in words: no discernible toxicity for NK Cells

## COC(=O)[C@H](Cc1ccc(O)cc1)NC(=O)[C@@H](N)CC(C)C [Leu-Tyr-OMe] (H-Leu-Tyr-OMe)
[1]
  competitive inhibition of [3H]Leu-Leu-OMe uptake, in words: excellent competitive inhibitors of [^3 H]Leu-Leu-OMe uptake
[1]; [4]
  inhibition at 250 µM: 86%
[2]
  NK Toxicity (LD50): > 250 micro-M
  NK toxicity / effect on NK function, in words: no observed NK inhibitory effects; also recorded: little or no toxicity for NK cells

## CC(C)C[C@H](NC(=O)[C@@H](N)CC(C)C)C(=O)OCc1ccccc1 [Leu-Leu-OBenzyl, L-leucyl-L-leucyl benzyl ester]
[1]
  competitive inhibition of [3H]Leu-Leu-OMe uptake, in words: competitively inhibited
[1]; [3]
  inhibition at 250 µM: 87%
[2]
  potency relative to Leu-Leu-OMe in depleting human PBL of cytotoxic lymphocytes: greater than twofold more potent than Leu-Leu-OMe
  NK toxicity / effect on NK function, in words: ablates human NK activity
[2]; 6.25 micro-M during preincubation, Nil 66 (Table 14)
  NK Function % Specific Lysis K562: 62%
[2]; 12.50 micro-M, Nil 66 (Table 14)
  NK Function % Specific Lysis K562: < 1%
[2]; 25.00 micro-M, Nil 66 (Table 14)
  NK Function % Specific Lysis K562: 1%

## NCC(=O)N[C@@H](Cc1ccccc1)C(=O)Nc1ccc2ccccc2c1 [Gly-Phe-beta-naphthylamide, glycyl L-phenylalanyl beta napthylamide] (H-Gly-Phe-βNA)
[1]
  competitive inhibition of [3H]Leu-Leu-OMe uptake, in words: competitively inhibits [^3 H]Leu-Leu-OMe uptake by lymphocytes
[2]; 1 micro-M, Nil 40.8 (Table 16)
  NK Function % Specific Lysis K562: 52.5%
[2]; 5 micro-M, Nil 40.8 (Table 16)
  NK Function % Specific Lysis K562: 1.2%
[2]; 20 micro-M, Nil 40.8 (Table 16)
  NK Function % Specific Lysis K562: 0.6%
[2]
  NK toxicity / effect on NK function, in words: a very potent NK toxin

## COC(=O)[C@H](Cc1ccccc1)NC(=O)[C@@H](N)CC(=O)O [Asp-Phe-OMe, aspartyl phenylalanine methyl ester] (H-Asp-Phe-OMe)
[1]; [4]
  inhibition at 250 µM: 8%
[2]
  NK Toxicity (LD50): > 250 micro-M
  NK toxicity / effect on NK function, in words: no observed NK inhibitory effects
[2]; preincubation 100 micromolar
  NK Function % Specific Cytotoxicity: 54.2%
[2]; preincubation 250 micromolar
  NK Function % Specific Cytotoxicity: 45.7%
[2]; preincubation 500 micromolar
  NK Function % Specific Cytotoxicity: 45.7%
[2]; preincubation 1000 micromolar
  NK Function % Specific Cytotoxicity: 46.9%

## COC(=O)[C@H](CC(C)C)NC(=O)[C@@H](N)CC(=O)O [Asp-Leu-OMe] (H-Asp-Leu-OMe)
[1]
  competitive inhibition of [3H]Leu-Leu-OMe uptake, in words: not competitively inhibited
[2]
  NK toxicity / effect on NK function, in words: exhibit no NK toxicity

## COC(=O)[C@H](CC(C)C)NC(=O)[C@@H](N)CO [Ser-Leu-OMe] (H-Ser-Leu-OMe)
[1]
  competitive inhibition of [3H]Leu-Leu-OMe uptake, in words: excellent competitive inhibitors of [^3 H]Leu-Leu-OMe uptake
[1]; [4]
  inhibition at 250 µM: 94%
[2]
  NK Toxicity (LD50): > 250 micro-M
  NK toxicity / effect on NK function, in words: no observed NK inhibitory effects; also recorded: little or no toxicity for NK cells

## COC(=O)[C@H](CC(C)C)NC(=O)[C@H](CC(C)C)NC(=O)[C@@H](N)CC(C)C [Leu-Leu-Leu-OMe] (H-Leu-Leu-Leu-OMe)
[1]
  competitive inhibition of [3H]Leu-Leu-OMe uptake, in words: do not competitively inhibit PBL uptake of L-Leu-L-Leu-OMe
[1]; [3]
  inhibition at 250 µM: 6%
[2]; MP-depleted lymphocytes (FIG. 4)
  concentration required for effect equivalent to Leu-Leu-OMe: 5 fold
[2]
  NK toxicity / effect on NK function, in words: caused dose-dependent loss of NK function

## COC(=O)[C@H](CC(C)C)NC(=O)[C@@H]1CCCN1 [Pro-Leu-OMe] (H-Pro-Leu-OMe)
[1]
  competitive inhibition of [3H]Leu-Leu-OMe uptake, in words: not competitively inhibited
[1]; [4]
  inhibition at 250 µM: -18%
[2]
  NK Toxicity (LD50): > 250 micro-M
  NK toxicity / effect on NK function, in words: exhibit no NK toxicity

## COC(=O)[C@H](Cc1ccccc1)NC(=O)[C@@H](N)C(C)C [Val-Phe-OMe] (H-Val-Phe-OMe)
[1]; [4]
  inhibition at 250 µM: 75%
[2]
  NK Toxicity (LD50): 24 micro-M
  NK toxicity / effect on NK function, in words: produced concentration-dependent ablation of NK function at concentrations comparable to those at which Leu-Leu-OMe was active; also recorded: among the most potent of the NK toxic dipeptide methyl esters
